Experimental data reported in US20110065796A1 (SHIRE LLC, priority 2009, published 2011).
pKi: −log10 of the molar value. Structures can show the parent of a compound that is named as a salt. Where two headings read alike, the source gives them in different places.

Experiments:
[1] = Comparative bioavailability study of guanfacine in monkeys given guanfacine or prodrug conjugates; type: in vivo, cynomolgus monkey; details: oral, monkey
Experimental: The characteristics of the test animals are set out in Table 13.
The following pharmacokinetic parameters derived from the plasma analytical data were determined using Win Nonlin;

[2] = target: T1, human α-2A adrenoceptor (Homo sapiens, UniProt P08913); assay: α-2A adrenoceptor binding assay ([3H] RX821002 competition, recombinant CHO cells); details: [3H] RX821002 (1 nM)
T1 construct: expressed in transfected cells; host or cells: CHO cells
T1 sequence (P08913 1-465): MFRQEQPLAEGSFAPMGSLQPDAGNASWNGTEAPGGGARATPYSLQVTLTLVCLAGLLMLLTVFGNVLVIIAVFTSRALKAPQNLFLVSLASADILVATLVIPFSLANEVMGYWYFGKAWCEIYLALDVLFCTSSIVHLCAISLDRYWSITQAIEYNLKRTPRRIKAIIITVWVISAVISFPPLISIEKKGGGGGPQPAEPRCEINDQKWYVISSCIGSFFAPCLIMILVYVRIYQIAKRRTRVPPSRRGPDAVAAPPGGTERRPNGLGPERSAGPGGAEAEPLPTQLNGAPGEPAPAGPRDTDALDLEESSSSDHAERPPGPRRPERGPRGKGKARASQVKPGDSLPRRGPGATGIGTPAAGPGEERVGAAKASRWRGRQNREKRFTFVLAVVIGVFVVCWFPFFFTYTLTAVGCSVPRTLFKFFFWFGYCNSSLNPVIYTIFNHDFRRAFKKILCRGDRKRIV
Experimental: The activation of this receptor is responsible for its intended therapeutic effect.
The binding assay methodology employed in this study followed that described by Langin et al. (Eur. J. Pharmacol. 167:95-104, 1989) and used human recombinant CHO cells expressing α-2 adrenoceptors. The competitive binding ligand was [3H] RX821002 (1 nM) which has a high affinity for the alpha-2A subtype.

[3] = Prodrug stability in simulated intestinal fluid; details: 37° C., pH 6.8, HPLC
Experimental: (§1) The remaining concentrations of the prodrugs were then assayed by H PLC.

[4] = Prodrug stability in freshly withdrawn porcine intestinal fluid; type: in vitro ADME; details: for Prodrug remaining at 3 h: porcine intestinal fluid pH 6.8, 37° C., in % (unit assumed)
From the text: Many of the peptidases in the intestinal lumen may not be present in the USP simulated intestinal fluid preparations previously described. […] The prodrugs evaluated were selected on the basis of adequate pharmacokinetics (see Example 8).

[5] = Prodrug stability in simulated gastric fluid; details: 37° C., pH 1.1, HPLC
Experimental: as §1

[6] = Pharmacokinetics in rat hepatic portal and tail veins after oral administration; type: in vivo
Experimental: Rats were surgically prepared under isofluorane anaesthesia by attaching a silicon catheter to the portal vein then exteriorising it at the nape of the neck with a blood collection port attached.
At each sampling time serial point blood samples (approximately 0.2 mL) were taken simultaneously from the lateral tail vein cannula and the hepatic portal cannula. After collection of the final blood sample each animal was killed by cervical dislocation. Blood samples were collected at 15, 30 minutes and 1, 2, 4, 8 and 24 hours post dose.
Pharmacokinetic parameters in portal and systemic plasma were derived by non-compartmental analysis (linear/logarithmic trapezoidal) using WinNonlin (Version 4.1) software.

[7] = tested on: gastrointestinal transit of a charcoal meal in the rat; assay: Charcoal propulsion test (gut motility) in rat; type: in vivo; details: oral
Experimental: The effect of a drug on gut motility can be studied by means of the charcoal propulsion test.
The method used was based on that described by Takemori et al. (J. Pharmacol. Exp. Ther. 169:39, 1969). Test treatments were administered orally 60 minutes prior to an oral dose of a 10% suspension of charcoal in 2.5% gum Arabic (2 ml/kg). Twenty minutes after dosing with charcoal, the rats were sacrificed and the entire gastrointestinal tract was removed quickly and carefully. The distance that the charcoal meal had traveled toward the caecum was measured and expressed as a percentage of the total gut length.

[8] = Comparative bioavailability study in monkeys in the fasted or fed state; type: in vivo, cynomolgus monkey; details: for Cmax: male, cynomolgus monkey, plasma, po, 0.5 mg/kg, read-out: mean Cmax prodrug
Experimental: Five male cynomolgus monkeys were used. Food was withdrawn from animals in fasted groups from the evening of the day prior to dosing until approximately 4 hours after dosing.
The formulations were prepared on the day of dosing and administered orally as soon as practicable up to a maximum of 2 hours after formulation.
Blood samples (0.5 mL) were collected from all animals pre-dose and at 0.5, 1, 2, 3, 4, 6, 8 10, 12, 16 and 24 hours after dosing.
Following processing, the resultant plasma was frozen and analysed by a qualified method. Pharmacokinetic evaluation was performed using a validated pharmacokinetic software package.

[9] = Comparative pharmacokinetic screening study in the monkey (relative Cmax of guanfacine); details: for prodrug levels in plasma (in words): oral gavage, monkey screening study
Experimental: Blood samples were taken on 4 sampling occasions at various times up to 6 hours after administration and submitted to analysis for the parent drug and prodrug using a qualified LC-MS-MS assay.

[10] = cited from earlier work
[11] = Study 1, dose 0.1 mg/kg guanfacine free base equivalents
[12] = Study 1, dose 0.3 mg/kg guanfacine free base equivalents
[13] = Study 1, dose 1 mg/kg guanfacine free base equivalents
[14] = Study 1, dose 3 mg/kg guanfacine free base equivalents
[15] = Study 1, dose 5 mg/kg guanfacine free base equivalents
[16] = Fasted, 0.5 mg/kg guanfacine equivalent dose, oral
[17] = hepatic portal vein plasma, po, 1 mg/kg, read-out: Hepatic portal vein Prodrug AUC
[18] = hepatic portal vein plasma, po, 1 mg/kg, read-out: Hepatic portal vein Prodrug Cmax
[19] = tail vein (systemic) plasma, po, 1 mg/kg, read-out: Tail vein Prodrug AUC
[20] = tail vein (systemic) plasma, po, 1 mg/kg, read-out: Tail vein Prodrug Cmax
[21] = Study 2, dose 0.1 mg/kg guanfacine free base equivalents
[22] = Study 2, dose 0.3 mg/kg guanfacine free base equivalents
[23] = Study 2, dose 0.5 mg/kg guanfacine free base equivalents

SMILES	% change in GI transit vs vehicle [7, 11]	% change in GI transit vs vehicle [7, 12]	% change in GI transit vs vehicle [7, 13]	% change in GI transit vs vehicle [7, 14]	% change in GI transit vs vehicle [7, 15]	pKi [2]	% prodrug remaining following incubation for 2 h in simulated intestinal fluid pH 6.8 [3]	stability in porcine intestinal fluid (in words) [4]	Prodrug remaining at 3 h [4]	% prodrug remaining following incubation for 1 h in simulated gastric fluid pH 1.1 [5]	prodrug levels in plasma (in words) [9]	AUC [6, 17]	Cmax [6, 18]	AUC [6, 19]	Cmax [6, 20]	% change in GI transit vs vehicle [7, 21]	% change in GI transit vs vehicle [7, 22]	further results
CC(C)[C@H](NC(=O)CCCC(=O)NC(=N)NC(=O)Cc1c(Cl)cccc1Cl)C(=O)O [Compound 1, Guanfacine (Glutaryl-(S)-Valine) Amide]	−9%	−6%	−45%	−50%	−53%	5.14	92%	high stability	100.6	80%	–	–	–	–	–	–	–	plasma guanfacine profile (in words) [1]: sustained guanfacine concentrations; AUC ([6]; hepatic portal vein plasma, oral, 0.5 mg/kg (footnote *), read-out: Hepatic portal vein Prodrug AUC): 0.159 µg·h/mL; Cmax ([6]; hepatic portal vein plasma, oral, 0.5 mg/kg (footnote *), read-out: Hepatic portal vein Prodrug Cmax): 56.3 ng/mL; AUC ([6]; tail vein (systemic) plasma, oral, 0.5 mg/kg (footnote *), read-out: Tail vein Prodrug AUC): 0.0296 µg·h/mL; Cmax ([6]; tail vein (systemic) plasma, oral, 0.5 mg/kg (footnote *), read-out: Tail vein Prodrug Cmax): 8.26 ng/mL; Cmax [8, 16]: 9.23 ng/mL; Cmax ([8]; Fed, 0.5 mg/kg guanfacine equivalent dose, oral): 7.19 ng/mL
CC(C)[C@H](N)C(=O)N[C@@H](COC(=O)NC(=N)NC(=O)Cc1c(Cl)cccc1Cl)C(=O)O [Compound 17, Guanfacine ((S)-Serine-(S)-Valine) Carbamate]	–	–	–	–	–	–	78%	very unstable	–	93%	total absence of prodrug in the plasma	–	–	–	–	–	–	–
C[C@@H](N)C(=O)N[C@@H](CCC(=O)NC(=N)NC(=O)Cc1c(Cl)cccc1Cl)C(=O)O [Compound 41, Guanfacine ((S)-γ-Glutamate-(R)-Alanine) Amide]	–	–	–	–	–	5.77	83%	high stability	89.70 ± 3.60	70%	detectable prodrug levels in plasma	0.0435 µg·h/mL	31.9 ng/mL	0.008 µg·h/mL	6.14 ng/mL	–	–	–
CNCC(=O)N[C@@H](COC(=O)NC(=N)NC(=O)Cc1c(Cl)cccc1Cl)C(=O)O [Compound 61, Guanfacine ((S)-Serine-Sarcosine) Carbamate]	–	–	–	–	–	5.00	96%	intermediate stability	66.86 ± 2.10	92%	detectable prodrug levels in plasma	0.0518 µg·h/mL	43.4 ng/mL	0.00509 µg·h/mL	7.07 ng/mL	−8%	−25%	comparative systemic exposure to guanfacine vs guanfacine at an equimolar dose (in words) ([6]; oral): similar; % change in GI transit vs vehicle [7, 23]: −31%
CNCC(=O)N[C@H](C(=O)O)[C@@H](C)OC(=O)NC(=N)NC(=O)Cc1c(Cl)cccc1Cl [Compound 63, Guanfacine ((R,S)-Threonine-Sarcosine) Carbamate]	–	–	–	–	–	–	99%	high stability	95.04 ± 9.25	86%	detectable prodrug levels in plasma	0.0665 µg·h/mL	23.7 ng/mL	0.0202 µg·h/mL	9.37 ng/mL	0%	−13%	comparative systemic exposure to guanfacine vs guanfacine at an equimolar dose (in words) ([6]; oral): similar; % change in GI transit vs vehicle [7, 23]: −49%

The next lines start with results.

% change in GI transit vs vehicle [7, 11]	% change in GI transit vs vehicle [7, 12]	% change in GI transit vs vehicle [7, 13]	% change in GI transit vs vehicle [7, 14]	% change in GI transit vs vehicle [7, 15]	SMILES	pKi [2]	% prodrug remaining following incubation for 2 h in simulated intestinal fluid pH 6.8 [3]	stability in porcine intestinal fluid (in words) [4]	Prodrug remaining at 3 h [4]	% prodrug remaining following incubation for 1 h in simulated gastric fluid pH 1.1 [5]	prodrug levels in plasma (in words) [9]	AUC [6, 17]	Cmax [6, 18]	AUC [6, 19]	Cmax [6, 20]	% change in GI transit vs vehicle [7, 21]	% change in GI transit vs vehicle [7, 22]	further results
+3%	−30%	−42%	−42%	−42%	CC(C)[C@H](N)C(=O)NCCC(=O)NC(=N)NC(=O)Cc1c(Cl)cccc1Cl [Compound 2, Guanfacine (β-Alanine-(S)-Valine) Amide]	5.92	89%	intermediate stability	77.8	75%	detectable prodrug levels in plasma	0.0192 µg·h/mL	46.4 ng/mL	0.00267 µg·h/mL	4.2 ng/mL	–	–	mean Cmax prodrug [8, 16]: BLQ; Cmax [8]: 2.15 ng/mL
−6%	−22%	−48%	−44%	−42%	CC(C)[C@@H](N)C(=O)N[C@@H](CCC(=O)NC(=N)NC(=O)Cc1c(Cl)cccc1Cl)C(=O)O [Compound 5, Guanfacine ((S)-γ-Glutamate-(R)-Valine) Amide]	5.80	89%	–	91.2	86%	–	0.061 µg·h/mL	41.5 ng/mL	0.0046 µg·h/mL	3.5 ng/mL	–	–	plasma guanfacine profile (in words) [1]: sustained guanfacine concentrations; % change in GI transit vs vehicle ([7]; Study 1, dose 1.7 mg/kg guanfacine free base equivalents): −50%
−52%	−55%	−47%	–	–	N=C(N)NC(=O)Cc1c(Cl)cccc1Cl [Guanfacine, N-Amidino-2-(2,6-dichlorophenyl)acetamide monohydrochloride, reference compound]	–	–	–	–	–	–	–	–	–	–	−41%	−56%	bioavailability of guanfacine in man [10]: > 80%; bioavailability ([9]; cynomolgus monkey, in vivo, po): 35%; % change in GI transit vs vehicle ([7]; Study 2, dose 0.03 mg/kg guanfacine free base equivalents): −13%; reduction in the distance traveled by the charcoal plug within 20 minutes, compared to control group ([7]; 0.1 mg base/kg): 41-52%
